System: NCED3 transgenic seeds
Experiment: GA3 treatment: germination of NCED3 transgenic R2 seeds on growth medium containing GA3
Assay type: in vivo, rice
Method: GA3 treatment: R2 seeds were surface-sterilized with 20% bleach and germinated on half-strength MS containing 0.4 mL/L Finale and filter-sterilized GA3 (gibberellin) to final concentrations of 0, 10, 100, 250, 500 or 1,000 μM.
ABA and GA3 (gibberellin) can act antagonistically in seed germination. To determine whether GA3 could release the prolonged dormancy evident in the NCED3 transgenic seeds, GA3 was added to the growth medium on which the seeds were placed for germination. […] Thus, addition of exogenous of GA3 can, at least in part, overcome the off-type of prolonged dormancy.

`C=C1C[C@]23C[C@@]1(O)CC[C@H]2[C@@]12C=C[C@H](O)[C@@](C)(C(=O)O1)[C@H]2[C@@H]3C(=O)O` [GA3] was tested, and the “seed germination (release of prolonged dormancy)” value (GA3 at a concentration as low as 10 μM in the growth medium) was “accelerated germination”, the seedling elongation (higher concentrations of GA3) was “more elongated” and the seed germination (higher concentrations of GA3 (100-1,000 μM) compared with 10 μM) was “did not significantly improve seed germination”.
